Reference: patent publication US6221906A, “Platinum complex conjugated to cyclotriphosphazene, its preparation, and anticancer agent comprising the same” (Korea Institute of Science and Technology, priority 1999, dated 2001)

Experiments:
Hartley guinea pigs = assay: guinea pig anaphylaxis test; format: in vivo
Procedure: […] The systemic symptoms were observed 30 minutes after the injection. […] However, only 2 animals administered with oligomeric platinum complex of the present invention (KI 60606: The compound in Example 8 of the present invention) had severe symptoms but none died.

leukemia L1210 cells = assay: anticancer activity test against mouse leukemia L1210 cells implanted in BDF1 mice; format: in vivo; settings: intra-peritoneal, days 1, 5 and 9; for Number of survival after 60 days: of 8 mice
[1] = literature value; cited from earlier work
ICR mouse = assay: pilot acute toxicity test, single tail vein injection (LD50); format: in vivo; settings: for Death rate: 2 animals; for deaths on day 0 after administration: of 2 animals
Procedure: A pilot acute toxicity test was performed for the compound (KI-60606) described in Example 8 of the present invention by intravenous injection.
(2) carrier: physiological saline for injection
(1) animal model: ICR mouse
(2) age of the animal: 4 weeks old when delivered, 5 weeks old when the drug was administered
(3) sex and number of animals: 12 males and 12 females
(4) breeding condition: temperature: 23 3C. relative humidity: 50 10% light intensity: 150-300 Lux
3. Number and method of administration: single tail vein injection
5. Observation categories: general symptoms, symptoms of dead animals, body weight up to seventh day after administration, autopsy finding.

[2] = antigen 5 mg/kg, induced antigen 5 mg/kg, 4 animals
[3] = male or female mice, 500 mg/kg or more
[4] = antigen 1 mg/kg, induced antigen 5 mg/kg, 4 animals

**Q.** For “[NP(OH)(Glu.Pt(dach)]n [KI-30606, reference compound]”, which “death due to anaphylaxis” value (Hartley guinea pigs; all animals, 30 minutes after injection) is on record?
**A.** died due to anaphylaxis

**Q.** And the “number of animals with symptom [+++] (death)” value (Hartley guinea pigs; antigen 1 mg/kg, induced antigen 5 mg/kg, 5 animals)?
**A.** 5

**Q.** And the “number of animals with symptom [+++] (death)” value (Hartley guinea pigs; [2])?
**A.** 4

**Q.** What does the source list for `O=C1[O][Pt-2]2([NH2+]CC[NH2+]2)[O]C(=O)C1NP1(NC2C(=O)[O][Pt-2]3([NH2+]CC[NH2+]3)[O]C2=O)=NP(NC2C(=O)[O][Pt-2]3([NH2+]CC[NH2+]3)[O]C2=O)(NC2C(=O)[O][Pt-2]3([NH2+]CC[NH2+]3)[O]C2=O)=NP(NC2C(=O)[O][Pt-2]3([NH2+]CC[NH2+]3)[O]C2=O)(NC2C(=O)[O][Pt-2]3([NH2+]CC[NH2+]3)[O]C2=O)=N1` (stereo not shown) [Example 18, [NP(Am·Pt(en))2]3]?
**A.** Increased life span (ILS) (leukemia L1210 cells; 30 mg/kg): > 400%; Number of survival after 60 days (leukemia L1210 cells; 30 mg/kg): 3/8; Increased life span (ILS) (leukemia L1210 cells; 60 mg/kg): Toxic

**Q.** Which “Increased life span (ILS)” value (leukemia L1210 cells; 30 mg/kg) does the source give for `CC1(C)C[NH2+][Pt-2]2([NH2+]C1)[O]C(=O)C[C@H](NP1(N[C@H]3CC(=O)[O][Pt-2]4([NH2+]CC(C)(C)C[NH2+]4)[O]C3=O)=NP(N[C@H]3CC(=O)[O][Pt-2]4([NH2+]CC(C)(C)C[NH2+]4)[O]C3=O)(N[C@H]3CC(=O)[O][Pt-2]4([NH2+]CC(C)(C)C[NH2+]4)[O]C3=O)=NP(N[C@H]3CC(=O)[O][Pt-2]4([NH2+]CC(C)(C)C[NH2+]4)[O]C3=O)(N[C@H]3CC(=O)[O][Pt-2]4([NH2+]CC(C)(C)C[NH2+]4)[O]C3=O)=N1)C(=O)[O]2` [Example 2, [NP(L-Asp·Pt(dmpda))2]3] here?
**A.** 165.0%

**Q.** And the “Increased life span (ILS)” value (leukemia L1210 cells; 60 mg/kg)?
**A.** 147.9%

**Q.** For `O=C1CC[C@H](NP2(N[C@H]3CCC(=O)[O][Pt-2]4([NH2+]CC[NH2+]4)[O]C3=O)=NP(N[C@H]3CCC(=O)[O][Pt-2]4([NH2+]CC[NH2+]4)[O]C3=O)(N[C@H]3CCC(=O)[O][Pt-2]4([NH2+]CC[NH2+]4)[O]C3=O)=NP(N[C@H]3CCC(=O)[O][Pt-2]4([NH2+]CC[NH2+]4)[O]C3=O)(N[C@H]3CCC(=O)[O][Pt-2]4([NH2+]CC[NH2+]4)[O]C3=O)=N2)C(=O)[O][Pt-2]2([NH2+]CC[NH2+]2)[O]1` [Example 13, [NP(L-Glu·Pt(en))2]3], which “Increased life span (ILS)” value (leukemia L1210 cells; 30 mg/kg) is on record?
**A.** 277%

**Q.** What about the “Increased life span (ILS)” value (leukemia L1210 cells; 60 mg/kg) of the same compound?
**A.** Toxic

**Q.** For `N.N.[Cl][Pt][Cl]` [Cisplatin, cis-(NH3)2 PtCl2, reference compound], which “Increased life span (ILS)” value (leukemia L1210 cells; 4 mg/kg) is on record?
**A.** 60%

**Q.** Which “Increased life span (ILS)” value (leukemia L1210 cells; 30 mg/kg) does the source give for `O=C1C[C@H](NP2(N[C@H]3CC(=O)[O][Pt-2]4([NH2+]CC[NH2+]4)[O]C3=O)=NP(N[C@H]3CC(=O)[O][Pt-2]4([NH2+]CC[NH2+]4)[O]C3=O)(N[C@H]3CC(=O)[O][Pt-2]4([NH2+]CC[NH2+]4)[O]C3=O)=NP(N[C@H]3CC(=O)[O][Pt-2]4([NH2+]CC[NH2+]4)[O]C3=O)(N[C@H]3CC(=O)[O][Pt-2]4([NH2+]CC[NH2+]4)[O]C3=O)=N2)C(=O)[O][Pt-2]2([NH2+]CC[NH2+]2)[O]1` [Example 4, [NP(L-Asp·Pt(en))2]3] here?
**A.** 250.9%

**Q.** And the “Increased life span (ILS)” value (leukemia L1210 cells; 60 mg/kg)?
**A.** Toxic

**Q.** Which “Increased life span (ILS)” value (leukemia L1210 cells; 30 mg/kg) does the source give for `O=C1[O][Pt-2]2([NH2+]C3CCCCC3[NH2+]2)[O]C(=O)C1NP1(NC2C(=O)[O][Pt-2]3([NH2+]C4CCCCC4[NH2+]3)[O]C2=O)=NP(NC2C(=O)[O][Pt-2]3([NH2+]C4CCCCC4[NH2+]3)[O]C2=O)(NC2C(=O)[O][Pt-2]3([NH2+]C4CCCCC4[NH2+]3)[O]C2=O)=NP(NC2C(=O)[O][Pt-2]3([NH2+]C4CCCCC4[NH2+]3)[O]C2=O)(NC2C(=O)[O][Pt-2]3([NH2+]C4CCCCC4[NH2+]3)[O]C2=O)=N1` (racemic) [Example 16, [NP(Am·Pt(dach)2]3] here?
**A.** 222.1%

**Q.** What about the “Increased life span (ILS)” value (leukemia L1210 cells; 60 mg/kg) of the same compound?
**A.** Toxic

**Q.** Which LD50 [1] does the source give for `N.N.O=C([O-])C1(C(=O)[O-])CCC1.[Pt+2]` [Carboplatin, cis-(NH3)2 Pt(CBDCA), reference compound] here?
**A.** 180 mg/kg

**Q.** What about the “Increased life span (ILS)” value (leukemia L1210 cells; 40 mg/kg) of the same compound?
**A.** 80%

**Q.** Which Main symptoms (ICR mouse; 62.5-2000 mg/kg, single intravenous injection, ICR mice) does the source give for `O=C1CCC(NP2(NC3CCC(=O)[O][Pt-2]4([NH2+]C5CCCCC5[NH2+]4)[O]C3=O)=NP(NC3CCC(=O)[O][Pt-2]4([NH2+]C5CCCCC5[NH2+]4)[O]C3=O)(NC3CCC(=O)[O][Pt-2]4([NH2+]C5CCCCC5[NH2+]4)[O]C3=O)=NP(NC3CCC(=O)[O][Pt-2]4([NH2+]C5CCCCC5[NH2+]4)[O]C3=O)(NC3CCC(=O)[O][Pt-2]4([NH2+]C5CCCCC5[NH2+]4)[O]C3=O)=N2)C(=O)[O][Pt-2]2([NH2+]C3CCCCC3[NH2+]2)[O]1` [Example 8, [NP(L-Glu·Pt(dach))2]3] here?
**A.** prone positioning, gait disturbance, dyspnea and decrease in body weight

**Q.** And the “General symptoms of dead mice” value (ICR mouse; 125 or 250 mg/kg)?
**A.** prone positioning and drooling

**Q.** And the “Estimated LD50 value” (ICR mouse; female ICR mice, single intravenous injection)?
**A.** 125 to 250 mg/kg

**Q.** And the Death rate (ICR mouse; female, 62.5 mg/kg)?
**A.** 0%

**Q.** And the “number of mice with decrease in body weight” value (ICR mouse; female, 125 mg/kg)?
**A.** 2

**Q.** And the Death rate (ICR mouse; female, 125 mg/kg)?
**A.** 0%

**Q.** And the Death rate (ICR mouse; female, 250 mg/kg)?
**A.** 100%

**Q.** What about the “deaths on day 0 after administration” value (ICR mouse; female, 250 mg/kg) of the same compound?
**A.** 2

**Q.** And the Death rate (ICR mouse; female, 500 mg/kg)?
**A.** 100%

**Q.** What about the “deaths on day 0 after administration” value (ICR mouse; female, 500 mg/kg) of the same compound?
**A.** 2

**Q.** What about the Death rate (ICR mouse; female, 1000 mg/kg) of the same compound?
**A.** 100%

**Q.** And the “deaths on day 0 after administration” value (ICR mouse; female, 1000 mg/kg)?
**A.** 2

**Q.** What about the Death rate (ICR mouse; female, 2000 mg/kg) of the same compound?
**A.** 100%

**Q.** What about the “deaths on day 0 after administration” value (ICR mouse; female, 2000 mg/kg) of the same compound?
**A.** 2

**Q.** And the “Estimated LD50 value” (ICR mouse; male ICR mice, single intravenous injection)?
**A.** 125 mg/kg

**Q.** And the General symptoms (ICR mouse; [3])?
**A.** prone positioning, gait disturbance and dyspnea

**Q.** What about the “time of death after injection” value (ICR mouse; [3]) of the same compound?
**A.** 10 to 20 s

**Q.** What about the “number of mice with decrease in body weight” value (ICR mouse; male, 62.5 mg/kg) of the same compound?
**A.** 1

**Q.** And the Death rate (ICR mouse; male, 62.5 mg/kg)?
**A.** 0%

**Q.** What about the Death rate (ICR mouse; male, 125 mg/kg) of the same compound?
**A.** 50%

**Q.** And the “deaths on day 0 after administration” value (ICR mouse; male, 125 mg/kg)?
**A.** 1

**Q.** What about the Death rate (ICR mouse; male, 250 mg/kg) of the same compound?
**A.** 100%

**Q.** And the “deaths on day 0 after administration” value (ICR mouse; male, 250 mg/kg)?
**A.** 2

**Q.** And the Death rate (ICR mouse; male, 500 mg/kg)?
**A.** 100%

**Q.** And the “deaths on day 0 after administration” value (ICR mouse; male, 500 mg/kg)?
**A.** 2

**Q.** What about the Death rate (ICR mouse; male, 1000 mg/kg) of the same compound?
**A.** 100%

**Q.** What about the “deaths on day 0 after administration” value (ICR mouse; male, 1000 mg/kg) of the same compound?
**A.** 2

**Q.** What about the Death rate (ICR mouse; male, 2000 mg/kg) of the same compound?
**A.** 100%

**Q.** And the “deaths on day 0 after administration” value (ICR mouse; male, 2000 mg/kg)?
**A.** 2

**Q.** And the autopsy finding (ICR mouse; mice that died immediately and mice that survived)?
**A.** No particular autopsy finding was observed

**Q.** What about the “General symptoms of live animals” value (ICR mouse; one day after injection) of the same compound?
**A.** did not have any particular symptoms

**Q.** And the “death in anaphylaxis test” value (Hartley guinea pigs; all dose groups)?
**A.** none died

**Q.** And the “number of animals with severe symptoms” value (Hartley guinea pigs; all dose groups)?
**A.** 2

**Q.** What about the “number of animals with symptom [++] (severe)” value (Hartley guinea pigs; [4]) of the same compound?
**A.** 2

**Q.** What about the “number of animals with symptom [+] (moderate)” value (Hartley guinea pigs; [4]) of the same compound?
**A.** 1

**Q.** And the “number of animals with symptom [±] (mild)” value (Hartley guinea pigs; [4])?
**A.** 1

**Q.** What about the “number of animals with symptom [+] (moderate)” value (Hartley guinea pigs; [2]) of the same compound?
**A.** 1

**Q.** What about the “number of animals with symptom [-] (asymptomatic)” value (Hartley guinea pigs; [2]) of the same compound?
**A.** 3

**Q.** What about the “antigenicity compared with physiological saline” value (Hartley guinea pigs; compared with physiological saline solution) of the same compound?
**A.** antigenicity was even less

**Q.** And the “Increased life span (ILS)” value (leukemia L1210 cells; 60 mg/kg)?
**A.** > 400%

**Q.** And the “Number of survival after 60 days” value (leukemia L1210 cells; 60 mg/kg)?
**A.** 3/8

**Q.** And the “Increased life span (ILS)” value (leukemia L1210 cells; 80 mg/kg)?
**A.** > 402.8%

**Q.** What about the “Number of survival after 60 days” value (leukemia L1210 cells; 80 mg/kg) of the same compound?
**A.** 3/8

**Q.** Which “Increased life span (ILS)” value (leukemia L1210 cells; 40 mg/kg) does the source give for `O=C1CC(NP2(NC3CC(=O)[O][Pt-2]4([NH2+]C5CCCCC5[NH2+]4)[O]C3=O)=NP(NC3CC(=O)[O][Pt-2]4([NH2+]C5CCCCC5[NH2+]4)[O]C3=O)(NC3CC(=O)[O][Pt-2]4([NH2+]C5CCCCC5[NH2+]4)[O]C3=O)=NP(NC3CC(=O)[O][Pt-2]4([NH2+]C5CCCCC5[NH2+]4)[O]C3=O)(NC3CC(=O)[O][Pt-2]4([NH2+]C5CCCCC5[NH2+]4)[O]C3=O)=N2)C(=O)[O][Pt-2]2([NH2+]C3CCCCC3[NH2+]2)[O]1` [Example 1, [NP(L-Asp·Pt(dach))2]3] here?
**A.** > 243.8%

**Q.** What about the “Number of survival after 60 days” value (leukemia L1210 cells; 40 mg/kg) of the same compound?
**A.** 1/8

**Q.** What about the “Increased life span (ILS)” value (leukemia L1210 cells; 60 mg/kg) of the same compound?
**A.** > 448.8%

**Q.** What about the “Number of survival after 60 days” value (leukemia L1210 cells; 60 mg/kg) of the same compound?
**A.** 4/8
